The record followed here is ChEMBL document CHEMBL5365398, “Structure-activity relationship study of central pyridine-derived TYK2 JH2 inhibitors: Optimization of the PK profile through C4' and C6 variations” (Bioorg Med Chem Lett, 2023).

The nature of data set [1]: in vitro. Particulars: human, liver microsomes.
A short description of data set [2]: in vitro. Particulars: rat, liver microsomes.
Data set [3] in a line: in vitro. Particulars: mouse, liver microsomes.
A short description of data set [4]: in vitro. Particulars: human, Caco-2.
The nature of data set [5]: in vivo. Particulars: mouse, po, 10 mg/kg.
The nature of data set [6]: in vivo. Particulars: mouse, po, 10 mg/kg. The source holds these as a separate data set.
Data set [7] can be described thus: in vivo. Particulars: mouse, po, 10 mg/kg. This is another data set of the same source.
The nature of data set [8]: in vitro. As to conditions: human, liver microsomes. The source holds these as a separate data set.
Data set [9] is described as follows: in vitro. Particulars: mouse, liver microsomes. This is another data set of the same source.
The nature of data set [10]: in vitro. As to conditions: rat, liver microsomes. The source holds these as a separate data set.

On to `[2H]C([2H])([2H])NC(=O)c1nnc(Nc2cccc(OC)n2)cc1Nc1nccc(-c2ncn(C)n2)c1OC`, for which the share remaining at 10 min, 0.5 µM in “in vitro [1]” stood at 88%; in “in vitro [2]”, 71%; in “in vitro [3]” it was 65%.
`[2H]C([2H])([2H])NC(=O)c1nnc(NC(=O)C2CC2)cc1Nc1nccc(-c2ncc(F)cn2)c1OC`: the figures for the amount remaining at 10 min, 0.5 µM in the data set “in vitro [1]”, in “in vitro [2]” and in the data set “in vitro [3]” were 89%, 100% and 100%, respectively. Moreover, the Papp A→B in “in vitro [4]” came out at 34.5 ×10⁻⁶ cm/s.
The compound `[2H]C([2H])([2H])NC(=O)c1nnc(Nc2ccc(C(C)(C)O)cn2)cc1Nc1nccc(-c2ncc(F)cn2)c1OC` returned a Cmax in “in vivo [5]” of 15.2 µM. The compound further gave an area under the curve AUC(0-t) in “in vivo [6]” of 34.2 µM·h. Moreover, the bioavailability in the data set “in vivo [7]” is 94%. In addition, the share remaining at 10 min, 0.5 µM in “in vitro [1]” was determined as 100%; in the data set “in vitro [2]”, 100%; in the data set “in vitro [3]”, 83%. The half-life in the data set “in vitro [8]”, in the data set “in vitro [9]” and in the data set “in vitro [10]” was more than 120 min each time. The compound also displayed an apical-to-basolateral permeability (Papp A→B) in “in vitro [4]” of 9.7 ×10⁻⁶ cm/s.
